{"source": "patent US8962621B2", "about": "(Shanghai Institute of Pharmaceutical Industry, priority 2010, dated 2015)", "key": {"NA reuptake": {"system": "NA reuptake", "assay": "Yohimbine toxicity enhancement in mice", "format": "in vivo", "conditions": "for Mortality (%) 1 h / Mortality (%) 2 h / Mortality (%) 4 h / Mortality (%) 5 h / Mortality (%) 24 h: Yohimbine 25 mg/kg s.c. 1 h later, n = 10", "text": "(§1) Tests of the 5-hydroxytryptophan (DL-5-HTP) potentiation in mice, Yohimbine toxicity enhancement in mice and oxidation tremors can verify a compound's inhibition effect on 5-HT, NA and DA reuptake. Compound VI-2 is selected for the tests.\na) Principles • Yohimbine can prevent the binding of NA to the receptor by occupying α2 receptor. If an antidepressant which inhibits the deactivation of NA or inhibits NA reuptake is taken together with Yohimbine, an individual may be poisoned even to death due to the raised NA concentration.\nb) Test Method • This test consists of 5 experimental groups: Yohimbine control group, VI-2-1 (30 mg/kg) group, VI-2-2 (18 mg/kg) group, VI2-3 (11 mg/kg) group and VI-2-4 (6.5 mg/kg) group. The highest dose used in the DL-5-HTP potentiation test in mice is designated as the reference for the highest dose group, down from which 4 dosage groups are set with a dose ratio of 0.6 across groups. For each VI-2 group, the compound at the corresponding dosage is administrated orally, or as in the case of the Yohimbine control group, N.S is given to the animals. One hour after the treatment, Yohimbine at 25 mg/kg (life-threatening dose for the animal) is administrated by subcutaneous injection to the mice in all groups. The mortality in each group is observed and recorded at 1, 2, 4, 5 and 24 h after the administration of Yohimbine. The ED50 value is calculated accordingly."}, "DA reuptake": {"system": "DA reuptake", "assay": "Oxidation tremor test (oxotremorine-induced tremors)", "format": "in vivo, mice", "text": "as §1\na) Principles • The pathogenesis of paralysis agitans is primarily related to the imbalance between DA function and Ach function. […] If the same function can be exerted in vivo, VI-2 will be able to partially antagonize the symptoms induced by an M receptor agonist.\nb) Test Method • This test consists of 6 experimental groups: Model control group, VI-2-1 (300 mg/kg) group, VI-2-2 (200 mg/kg) group, VI-2-3 (120 mg/kg) group, VI-2-4 (60 mg/kg) group and VI-2-5 (30 mg/kg) group. For each VI-2 group, the compound at the corresponding dosage is administrated orally, or as in the case of the Model control group, N.S is given to the animals. One hour after the treatment, oxotremorine (0.5 mg/kg, 0.1 mL/10 g) is administrated by intraperitoneal injection to the mice in all groups. Responses of the mice are observed."}, "[1]": {"system": "Histidine auxotroph mutant of mouse salmonella TA97, TA98, TA100 and TA102", "format": "cell-based", "text": "5. […] 6. Bacterial Reverse Mutation Test of Compounds VI-1 VI-2 and VI16 • Strains: Histidine auxotroph mutant of mouse salmonella TA97, TA98, TA100 and TA102. • Test method: The one reported in Maron DM et al: (1983) Mutay Res. 113, 173-216 is used. • Results: The test consists of two parts, i.e., −S9 and +S9. […] No bacteriostatic actions to all the strains are observed at all the other dosages, and the growth background is good."}, "male Kunming mice": {"system": "male Kunming mice", "assay": "Mice forced swimming test", "format": "in vivo", "method": "Through intragastric administration, 10 mL·kg^−1 of each sample (physiological saline for the blank control group) is administrated. The mice are pre-screened for swimming one day before the actual test. The mouse is placed into water (25° C., 10 cm deep) in a glass tank (height 20 cm, diameter 14 cm) and forced to swim for 6 min. Those who stop swimming at around 70-160 s are chosen for the actual test which starts 24 h later. After 1 h of the administration, the forced swimming test is performed by placing the animal into the above-mentioned environment to swim for 6 min. The accumulative immobility time for the last 4 min is recorded. Data is statistically analyzed with t-test."}, "[2]": {"assay": "Acute toxicity experiment (single oral gavage)", "conditions": "mouse, in vivo, po"}, "male ICR mice": {"system": "male ICR mice", "assay": "Mice tail suspension test", "format": "in vivo", "method": "Through intragastric administration, 10 mL·kg^−1 of each sample (physiological saline for the blank control group) is administrated. After 1 h of the treatment, the mouse is held with a medical tape at a position around 2 cm from the tip of its tail and hung upside-down in the suspension cage with its head 5 cm away from the bottom of the cage. The observation starts right after the mouse is suspended for 2 min and continues for 4 min. The time during which the mouse is immobile (no struggling or only tiny movements of its body/limbs) in this 4 min is accumulated (IT, immobility time). The percentage of the improvement is calculated according to the equation: Improvement %=[IT (blank control group)−IT (compound treatment group)]/IT (blank control group)×100%"}}}
{"smiles": "CN(C)CCC(c1ccc(Cl)c(Cl)c1)N1CCCC1", "note": "(centres unmarked) [VI-2, N,N-dimethyl-3-(3,4-dichlorophenyl)-3-(pyrrolidin-1-yl)-propylamine]", "values": [{"measurement": "Mortality (%) 1 h", "setting": "NA reuptake; 6.5 mg/kg oral", "result": 0, "unit": "%"}, {"measurement": "Mortality (%) 2 h", "setting": "NA reuptake; 6.5 mg/kg oral", "result": 0, "unit": "%"}, {"measurement": "Mortality (%) 4 h", "setting": "NA reuptake; 6.5 mg/kg oral", "result": 0, "unit": "%"}, {"measurement": "Mortality (%) 5 h", "setting": "NA reuptake; 6.5 mg/kg oral", "result": 0, "unit": "%"}, {"measurement": "Mortality (%) 24 h", "setting": "NA reuptake; 6.5 mg/kg oral", "result": 0, "unit": "%"}, {"measurement": "Mortality (%) 1 h", "setting": "NA reuptake; 11 mg/kg oral", "result": 0, "unit": "%"}, {"measurement": "Mortality (%) 2 h", "setting": "NA reuptake; 11 mg/kg oral", "result": 1, "unit": "%"}, {"measurement": "Mortality (%) 4 h", "setting": "NA reuptake; 11 mg/kg oral", "result": 0, "unit": "%"}, {"measurement": "Mortality (%) 5 h", "setting": "NA reuptake; 11 mg/kg oral", "result": 0, "unit": "%"}, {"measurement": "Mortality (%) 24 h", "setting": "NA reuptake; 11 mg/kg oral", "result": 0, "unit": "%"}, {"measurement": "Mortality (%) 1 h", "setting": "NA reuptake; 18 mg/kg oral", "result": 1, "unit": "%"}, {"measurement": "Mortality (%) 2 h", "setting": "NA reuptake; 18 mg/kg oral", "result": 2, "unit": "%"}, {"measurement": "Mortality (%) 4 h", "setting": "NA reuptake; 18 mg/kg oral", "result": 0, "unit": "%"}, {"measurement": "Mortality (%) 5 h", "setting": "NA reuptake; 18 mg/kg oral", "result": 0, "unit": "%"}, {"measurement": "Mortality (%) 24 h", "setting": "NA reuptake; 18 mg/kg oral", "result": 0, "unit": "%"}, {"measurement": "Mortality (%) 1 h", "setting": "NA reuptake; 30 mg/kg oral", "result": 2, "unit": "%"}, {"measurement": "Mortality (%) 2 h", "setting": "NA reuptake; 30 mg/kg oral", "result": 0, "unit": "%"}, {"measurement": "Mortality (%) 4 h", "setting": "NA reuptake; 30 mg/kg oral", "result": 0, "unit": "%"}, {"measurement": "Mortality (%) 5 h", "setting": "NA reuptake; 30 mg/kg oral", "result": 0, "unit": "%"}, {"measurement": "Mortality (%) 24 h", "setting": "NA reuptake; 30 mg/kg oral", "result": 0, "unit": "%"}, {"measurement": "enhancement of Yohimbine toxicity (in words)", "setting": "NA reuptake; 30, 18 and 11 mg/kg oral, significant dose-effect relationship", "result": "enhances the toxicity of Yohimbine"}, {"measurement": "ED50", "setting": "NA reuptake; Mus musculus, oral, Bliss method, DAS statistical software", "result": 32.8, "unit": "mg/kg"}, {"measurement": "anti-tremor effect (in words)", "setting": "DA reuptake; 30 mg/kg oral, oxotremorine 0.5 mg/kg i.p. 1 h later", "result": "No anti-tremor effect is observed"}, {"measurement": "Side overturn (in words)", "setting": "DA reuptake; 120 mg/kg or lower", "result": "rarely observed"}, {"measurement": "Side overturn (in words)", "setting": "DA reuptake; 300 mg/kg and 200 mg/kg oral", "result": "Side overturn of different extent is observed"}, {"measurement": "Activity of the mice (in words)", "setting": "DA reuptake; 300→200→120→60→30 mg/kg = Model", "result": "The best activity of the mice is observed in the 300 mg/kg group"}, {"measurement": "intensity of tremors versus dose (in words)", "setting": "DA reuptake; Model→30→60→120→200→300 mg/kg from high to low", "result": "Clear dose-effect relationship is observed"}, {"measurement": "antagonism of the tremor symptom (in words)", "setting": "DA reuptake; by enhancing the function of DA", "result": "can partially antagonize the tremor symptom"}, {"measurement": "doses giving improvement of tremor (in words)", "setting": "DA reuptake; oral 30-300 mg/kg, oxotremorine 0.5 mg/kg i.p.", "result": "An improvement is only observed at doses up to 120 mg/kg"}, {"measurement": "enhancement of DA function at therapeutic doses (in words)", "setting": "DA reuptake; therapeutic doses (10-20 mg/kg)", "result": "no such enhancement"}, {"measurement": "bacteriostatic action", "setting": "[1]; 5000 μg per dish, TA98 without S9 and TA97 with S9, none at other dosages", "result": "bacteriostatic action is showed"}, {"measurement": "Ames test result", "setting": "[1]; TA97, TA98, TA100, TA102, with or without S9, all test dosages", "result": "negative"}, {"measurement": "effect in the forced swimming test (in words)", "setting": "male Kunming mice; 20 mg/kg", "result": "significant reduction in the immobility time"}, {"measurement": "IT (sec), immobility time", "setting": "male Kunming mice; 20.0 mg/kg single intragastric administration, 1 h before test, last 4 min of 6 min, n=12", "result": "74.9 ± 37.8", "unit": "s"}, {"measurement": "LD50", "setting": "[2]", "result": 950, "unit": "mg/kg"}, {"measurement": "IT (sec), immobility time", "setting": "male ICR mice; 20.0 mg/kg single intragastric administration, 1 h before test, 4 min observation, n=12", "result": "36.19 ± 25.78", "unit": "s"}, {"measurement": "Improvement (%)", "setting": "male ICR mice; 20.0 mg/kg single oral administration, versus blank control IT", "result": 63.52, "unit": "%"}, {"measurement": "effect on immobility time in the tail suspension test (in words)", "setting": "male ICR mice; 20 mg/kg, efficacy similar to Venlafaxine", "result": "significant reduction in the immobility time"}]}
